One experiment has as its target LRRK2 wild type enzyme (Homo sapiens, UniProt Q5S007). As to the kind of experiment: Biochemical Assay: LRRK2 TR-FRET (LanthaScreen) kinase assay with LRRKtide substrate. The conditions noted are these: LRRK2 Inhibition, Table 8. In short, it runs like this:
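TR-FRET detection (Tb-labelled phospho-LRRKtide antibody, EDTA stop, 30 min) followed a 120 min, 23 °C reaction of 3 nM wild-type human LRRK2 with LRRKtide (400 nM) and ATP (25 μM) in Tris pH 8.0. Compounds: 11-point 3-fold series from 10 μM, 15 min enzyme preincubation.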

The target in experiment [1] is T1, wild type LRRK2 overexpressed in recombinant HEK-293T cells (Homo sapiens, UniProt Q5S007).
T1 construct: host or cells: HEK293T (transient transfection with pCMV-LRRK2 WT plasmid)
Description: pS935 LRRK2 Cell Assay (HTRF, phospho-LRRK2 Ser935). The class given is cell-based. The conditions noted are these: LRRK2 Inhibition, Table 8, 2 hours compound incubation. In short, it runs like this:
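Phospho-Ser935 LRRK2 measured by two-antibody HTRF (Eu-cryptate donor, d2 acceptor; 665/615 nm ratio) after overnight detection at 23° C. Before lysis, transiently LRRK2-transfected HEK-293T cells were exposed 2 h at 37° C to a 9-point, 3-fold series from 10 μM, with DMSO at 0.2%.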
For orientation: In TR-FRET formats the signal depends on donor and acceptor labels being close together.

Each structure is given as a SMILES string.

One may read the IC50 as the concentration that inhibits the measured activity by half.

LRRK2 wild type enzyme, sequence (Q5S007 whole entry): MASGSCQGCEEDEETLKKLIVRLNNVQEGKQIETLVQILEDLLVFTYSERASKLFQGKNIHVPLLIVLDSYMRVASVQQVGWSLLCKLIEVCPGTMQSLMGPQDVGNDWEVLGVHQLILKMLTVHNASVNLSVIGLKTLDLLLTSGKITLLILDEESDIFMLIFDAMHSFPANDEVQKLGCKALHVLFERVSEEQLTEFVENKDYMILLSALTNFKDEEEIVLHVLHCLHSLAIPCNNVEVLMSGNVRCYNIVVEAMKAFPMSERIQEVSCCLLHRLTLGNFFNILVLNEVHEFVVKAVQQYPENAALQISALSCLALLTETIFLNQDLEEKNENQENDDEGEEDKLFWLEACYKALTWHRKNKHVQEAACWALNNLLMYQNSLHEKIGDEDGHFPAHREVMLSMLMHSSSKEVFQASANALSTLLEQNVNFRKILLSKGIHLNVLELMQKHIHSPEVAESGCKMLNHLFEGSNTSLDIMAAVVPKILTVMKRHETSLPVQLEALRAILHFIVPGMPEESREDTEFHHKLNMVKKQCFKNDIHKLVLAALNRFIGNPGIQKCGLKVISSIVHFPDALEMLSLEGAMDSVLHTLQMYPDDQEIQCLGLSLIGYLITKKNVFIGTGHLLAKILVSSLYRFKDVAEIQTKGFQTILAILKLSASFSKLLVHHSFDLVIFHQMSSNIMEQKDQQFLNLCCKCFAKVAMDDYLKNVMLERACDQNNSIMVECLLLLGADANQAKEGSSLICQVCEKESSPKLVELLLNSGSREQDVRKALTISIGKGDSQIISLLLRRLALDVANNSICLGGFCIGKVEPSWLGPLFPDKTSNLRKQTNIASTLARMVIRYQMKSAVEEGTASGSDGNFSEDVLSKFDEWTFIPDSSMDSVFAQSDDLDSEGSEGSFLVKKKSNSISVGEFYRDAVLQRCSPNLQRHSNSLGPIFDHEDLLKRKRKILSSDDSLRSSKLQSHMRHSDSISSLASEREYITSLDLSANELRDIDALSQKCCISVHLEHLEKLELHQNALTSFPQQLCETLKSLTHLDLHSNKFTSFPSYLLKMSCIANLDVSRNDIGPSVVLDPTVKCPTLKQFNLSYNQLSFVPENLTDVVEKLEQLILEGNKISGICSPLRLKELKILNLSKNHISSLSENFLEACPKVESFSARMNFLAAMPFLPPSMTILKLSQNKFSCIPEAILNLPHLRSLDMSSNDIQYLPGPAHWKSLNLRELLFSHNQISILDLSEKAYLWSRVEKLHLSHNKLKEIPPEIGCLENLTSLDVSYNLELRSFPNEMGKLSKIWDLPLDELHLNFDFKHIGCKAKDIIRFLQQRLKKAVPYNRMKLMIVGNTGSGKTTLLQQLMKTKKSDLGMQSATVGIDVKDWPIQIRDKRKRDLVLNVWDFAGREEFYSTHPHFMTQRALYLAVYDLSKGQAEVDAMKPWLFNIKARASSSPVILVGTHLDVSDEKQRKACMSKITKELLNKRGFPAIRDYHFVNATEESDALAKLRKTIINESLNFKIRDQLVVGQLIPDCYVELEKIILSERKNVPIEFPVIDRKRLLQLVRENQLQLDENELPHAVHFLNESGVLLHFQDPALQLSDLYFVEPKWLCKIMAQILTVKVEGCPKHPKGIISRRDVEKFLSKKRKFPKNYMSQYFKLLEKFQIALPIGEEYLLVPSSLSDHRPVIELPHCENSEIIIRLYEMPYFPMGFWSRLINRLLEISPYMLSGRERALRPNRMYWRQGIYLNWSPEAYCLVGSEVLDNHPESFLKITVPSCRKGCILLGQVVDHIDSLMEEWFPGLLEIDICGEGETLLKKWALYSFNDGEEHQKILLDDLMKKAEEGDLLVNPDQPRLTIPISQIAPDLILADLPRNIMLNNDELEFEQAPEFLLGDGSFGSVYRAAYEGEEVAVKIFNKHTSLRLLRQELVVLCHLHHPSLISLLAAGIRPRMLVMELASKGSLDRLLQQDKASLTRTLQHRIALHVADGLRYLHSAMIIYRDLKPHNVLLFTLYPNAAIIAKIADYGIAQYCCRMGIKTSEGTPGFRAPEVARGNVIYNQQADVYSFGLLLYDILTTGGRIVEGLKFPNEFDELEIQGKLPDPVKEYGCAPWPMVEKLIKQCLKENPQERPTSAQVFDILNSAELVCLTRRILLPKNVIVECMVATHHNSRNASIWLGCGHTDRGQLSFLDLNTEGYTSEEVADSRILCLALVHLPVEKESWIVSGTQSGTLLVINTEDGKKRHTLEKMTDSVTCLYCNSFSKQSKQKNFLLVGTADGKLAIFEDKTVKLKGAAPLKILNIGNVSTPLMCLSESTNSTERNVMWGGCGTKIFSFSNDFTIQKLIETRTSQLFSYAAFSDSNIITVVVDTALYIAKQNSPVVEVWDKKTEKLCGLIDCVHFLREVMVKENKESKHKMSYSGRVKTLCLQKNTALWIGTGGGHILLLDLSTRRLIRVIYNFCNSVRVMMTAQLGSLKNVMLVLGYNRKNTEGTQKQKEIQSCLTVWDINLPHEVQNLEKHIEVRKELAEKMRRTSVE
T1 sequence (Q5S007 whole entry): as above

Consider `COc1ncnc(OC)c1NC(=O)Cc1nc2cnc3ccc(C#N)cc3c2n1[C@@H]1CCO[C@H](C)C1` [Compound 247, N-(4,6-dimethoxy-5-pyrimidinyl){3-[(2R,4R)-2-methyltetrahydro-2H-pyran-4-yl]-12-cyano-3,5,8-triazatricyclo[7.4.0.0^2,6]trideca-1(9),2(6),4,7,10,12-hexaen-4-yl}acetamide], for which the values for the half-maximal inhibitory concentration (IC50) (against LRRK2 wild type enzyme; in experiment [1]) were 0.348 nM and 4.06 nM, respectively.

On to `C[C@@H]1C[C@H](n2c(CC(=O)Nc3ccc(=O)n(C)c3)nc3cnc4ccc(Cl)cc4c32)CCO1` [Compound 219, N-(1-methyl-6-oxo-1,6-dihydro-3-pyridyl){3-[(2R,4R)-2-methyltetrahydro-2H-pyran-4-yl]-12-chloro-3,5,8-triazatricyclo[7.4.0.0^2,6]trideca-1,4,6,8,10,12-hexaen-4-yl}acetamide], for which the half-maximal inhibitory concentration (IC50) worked out at 0.232 nM on LRRK2 wild type enzyme and 15.8 nM in experiment [1].

For `C[C@@H]1C[C@H](n2c(CC(=O)Nc3ccon3)nc3cnc4ccc(Cl)cc4c32)CCO1` [Compound 352, N-3-isoxazolyl{3-[(2R,4R)-2-methyltetrahydro-2H-pyran-4-yl]-12-chloro-3,5,8-triazatricyclo[7.4.0.0^2,6]trideca-1(9),2(6),4,7,10,12-hexaen-4-yl}acetamide], the IC50 at LRRK2 wild type enzyme turned out to be 0.507 nM; in experiment [1], 4.06 nM.

Consider `C[C@@H]1C[C@H](n2c(CC(=O)NC3CC34CC4)nc3cnc4ccc(C#N)cc4c32)CCO1` (stereo partly drawn) [Compound 249, N-1-spiro[2.2]pentyl{3-[(2R,4R)-2-methyltetrahydro-2H-pyran-4-yl]-12-cyano-3,5,8-triazatricyclo[7.4.0.0^2,6]trideca-1(9),2(6),4,7,10,12-hexaen-4-yl}acetamide], for which the results for the IC50 (against LRRK2 wild type enzyme; in experiment [1]) were 0.691 nM and 17.4 nM, respectively.

With `C[C@@H]1C[C@H](n2c(C3CCN(S(C)(=O)=O)CC3)nc3cnc4ccc(C#N)cc4c32)CCO1` [Compound 122, 2-(1-methanesulfonylpiperidin-4-yl)-1-[(2R,4R)-2-methyloxan-4-yl]-1H-imidazo[4,5-c]quinoline-8-carbonitrile], the results for the concentration for half-maximal inhibition (IC50) (against LRRK2 wild type enzyme; in experiment [1]) were 2.99 nM and 546 nM, respectively.

Take `C[C@@H]1C[C@H](n2c(CC(=O)NC3CCOCC3)nc3cnc4ccc(C#N)cc4c32)CCO1` [Compound 4, 2-{8-cyano-1-[(2R,4R)-2-methyloxan-4-yl]-1H-imidazo[4,5-c]quinolin-2-yl}-N-(oxan-4-yl)acetamide]: the half-inhibitory concentration (IC50) at LRRK2 wild type enzyme stood at 0.551 nM; in experiment [1], 57.5 nM.

Regarding `C[C@@H]1C[C@H](n2c(C3CC(=O)N([C@H]4CCOC4)C3)nc3cnc4ccc(C#N)cc4c32)CCO1` (stereo partly drawn) [Compound 45, 1-[(2R,4R)-2-methyloxan-4-yl]-2-{5-oxo-1-[(3S)-oxolan-3-yl]pyrrolidin-3-yl}-1H-imidazo[4,5-c]quinoline-8-carbonitrile], the half-inhibitory concentration (IC50) against LRRK2 wild type enzyme amounted to 3.24 nM; in experiment [1], 550 nM.

On to `C[C@@H]1C[C@H](n2c(CC(=O)NCC3CCCCO3)nc3cnc4ccc(C#N)cc4c32)CCO1` (stereo partly drawn) [Compound 143, 2-{8-cyano-1-[(2R,4R)-2-methyloxan-4-yl]-1H-imidazo[4,5-c]quinolin-2-yl}-N-[(oxan-2-yl)methyl]acetamide], for which the IC50 worked out at 0.534 nM against LRRK2 wild type enzyme and 11.5 nM in experiment [1].

On to `Cc1nc2n(n1)CC(NC(=O)Cc1nc3cnc4ccc(C#N)cc4c3n1[C@@H]1CCO[C@H](C)C1)CC2` (stereo partly drawn) [Compound 244, N-(2-methyl-4,5,6,7-tetrahydro-1,3,3a-triaza-5-indenyl){3-[(2R,4R)-2-methyltetrahydro-2H-pyran-4-yl]-12-cyano-3,5,8-triazatricyclo[7.4.0.0^2,6]trideca-1,4,6,8,10,12-hexaen-4-yl}acetamide], for which the concentration for half-maximal inhibition (IC50) was determined as 1.39 nM at LRRK2 wild type enzyme and 2630 nM in experiment [1].

Consider `C[C@@H]1C[C@H](n2c(CC(=O)NCc3ccncc3)nc3cnc4ccc(C#N)cc4c32)CCO1` [Compound 15, 2-{8-cyano-1-[(2R,4R)-2-methyloxan-4-yl]-1H-imidazo[4,5-c]quinolin-2-yl}-N-[(pyridin-4-yl)methyl]acetamide], for which the half-maximal inhibitory concentration (IC50) turned out to be 0.294 nM against LRRK2 wild type enzyme and 15.8 nM in experiment [1].

In the case of `Cc1ccc(NC(=O)Cc2nc3cnc4ccc(C#N)cc4c3n2[C@@H]2CCO[C@H](C)C2)c(C)n1` [Compound 270, N-(2,6-dimethyl-3-pyridyl){3-[(2R,4R)-2-methyltetrahydro-2H-pyran-4-yl]-12-cyano-3,5,8-triazatricyclo[7.4.0.0^2,6]trideca-1,4,6,8,10,12-hexaen-4-yl}acetamide], the IC50 amounted to 0.504 nM against LRRK2 wild type enzyme and 7.36 nM in experiment [1].

`C[C@@H]1C[C@H](n2c(CC(=O)Nc3ccc(Cl)nc3)nc3cnc4ccc(C#N)cc4c32)CCO1` [Compound 297, N-(6-chloro-3-pyridyl){3-[(2R,4R)-2-methyltetrahydro-2H-pyran-4-yl]-12-cyano-3,5,8-triazatricyclo[7.4.0.0^2,6]trideca-1,4,6,8,10,12-hexaen-4-yl}acetamide]: the half-inhibitory concentration (IC50) against LRRK2 wild type enzyme worked out at 0.225 nM; in experiment [1], 3.99 nM.

Regarding `C[C@@H]1C[C@H](n2c(CC3CN(S(C)(=O)=O)C3)nc3cnc4ccc(C#N)cc4c32)CCO1` [Compound 65, 2-[(1-methanesulfonylazetidin-3-yl)methyl]-1-[(2R,4R)-2-methyloxan-4-yl]-1H-imidazo[4,5-c]quinoline-8-carbonitrile], the half-inhibitory concentration (IC50) against LRRK2 wild type enzyme was found to be 5.03 nM; in experiment [1] it was 525 nM.

Turning to `C[C@@H]1C[C@H](n2c(CC(=O)NCc3ncccn3)nc3cnc4ccc(Cl)cc4c32)CCO1` [Compound 142, 2-{8-chloro-1-[(2R,4R)-2-methyloxan-4-yl]-1H-imidazo[4,5-c]quinolin-2-yl}-N-[(pyrimidin-2-yl)methyl]acetamide], the concentration for half-maximal inhibition (IC50) against LRRK2 wild type enzyme turned out to be 0.565 nM; in experiment [1], 17.8 nM.

For `COc1ncc(NC(=O)Cc2nc3cnc4ccc(C#N)cc4c3n2[C@@H]2CCO[C@H](C)C2)c(C)n1` [Compound 243, N-(2-methoxy-4-methyl-5-pyrimidinyl){3-[(2R,4R)-2-methyltetrahydro-2H-pyran-4-yl]-12-cyano-3,5,8-triazatricyclo[7.4.0.0^2,6]trideca-1(9),2(6),4,7,10,12-hexaen-4-yl}acetamide], the concentration for half-maximal inhibition (IC50) on LRRK2 wild type enzyme turned out to be 0.565 nM; in experiment [1], 11.5 nM.

Take `C[C@@H]1C[C@H](n2c(CC(=O)Nc3ccncc3)nc3cnc4ccc(C#N)cc4c32)CCO1` [Compound 326, N-4-pyridyl{3-[(2R,4R)-2-methyltetrahydro-2H-pyran-4-yl]-12-cyano-3,5,8-triazatricyclo[7.4.0.0^2,6]trideca-1(9),2(6),4,7,10,12-hexaen-4-yl}acetamide]: the IC50 on LRRK2 wild type enzyme came out at 0.492 nM; in experiment [1], 4.86 nM.

On to `C[C@@H]1C[C@H](n2c(CC(=O)Nc3ncccn3)nc3cnc4ccc(C#N)cc4c32)CCO1` [Compound 178, 2-{8-cyano-1-[(2R,4R)-2-methyloxan-4-yl]-1H-imidazo[4,5-c]quinolin-2-yl}-N-(pyrimidin-2-yl)acetamide], for which the half-inhibitory concentration (IC50) against LRRK2 wild type enzyme was 0.34 nM; in experiment [1] it was 3.92 nM.

In the case of `C[C@@H]1C[C@H](n2c(CC(=O)N[C@@H]3C[C@H]3c3cccnc3)nc3cnc4ccc(C#N)cc4c32)CCO1` [Compound 365, N-[(1R,2S)-2-(3-pyridyl)cyclopropyl]{3-[(2R,4R)-2-methyltetrahydro-2H-pyran-4-yl]-12-cyano-3,5,8-triazatricyclo[7.4.0.0^2,6]trideca-1(13),2(6),4,7,9,11-hexaen-4-yl}acetamide], the IC50 on LRRK2 wild type enzyme is 0.536 nM; in experiment [1], 23.3 nM.

Turning to `COc1nc(C)ncc1NC(=O)Cc1nc2cnc3ccc(C#N)cc3c2n1[C@@H]1CCO[C@H](C)C1` [Compound 248, N-(4-methoxy-2-methyl-5-pyrimidinyl){3-[(2R,4R)-2-methyltetrahydro-2H-pyran-4-yl]-12-cyano-3,5,8-triazatricyclo[7.4.0.0^2,6]trideca-1(9),2(6),4,7,10,12-hexaen-4-yl}acetamide], the IC50 stood at 0.4 nM at LRRK2 wild type enzyme and 4.2 nM in experiment [1].

Turning to `COc1ccc2ncc3nc(CC(=O)NC4CC4)n([C@@H]4CCO[C@H](C)C4)c3c2c1` [Compound 160, N-cyclopropyl-2-{8-methoxy-1-[(2R,4R)-2-methyloxan-4-yl]-1H-imidazo[4,5-c]quinolin-2-yl}acetamide], the figures for the IC50 (at LRRK2 wild type enzyme; in experiment [1]) were 2.82 nM and 332 nM, respectively.

In the case of `CCn1cc(NC(=O)Cc2nc3cnc4ccc(C#N)cc4c3n2[C@@H]2CCO[C@H](C)C2)cn1` [Compound 310, N-(1-ethyl-4-pyrazolyl){3-[(2R,4R)-2-methyltetrahydro-2H-pyran-4-yl]-12-cyano-3,5,8-triazatricyclo[7.4.0.0^2,6]trideca-1,4,6,8,10,12-hexaen-4-yl}acetamide], the IC50 on LRRK2 wild type enzyme worked out at 0.712 nM; in experiment [1], 15.4 nM.

As for `C[C@@H]1C[C@H](n2c(CC(=O)Nc3ccnn3C3COC3)nc3cnc4ccc(C#N)cc4c32)CCO1` [Compound 345, N-[1-(3-oxetanyl)-5-pyrazolyl]{3-[(2R,4R)-2-methyltetrahydro-2H-pyran-4-yl]-12-cyano-3,5,8-triazatricyclo[7.4.0.0^2,6]trideca-1(9),2(6),4,7,10,12-hexaen-4-yl}acetamide], the IC50 worked out at 0.573 nM against LRRK2 wild type enzyme and 52.6 nM in experiment [1].

On to `C[C@@H]1C[C@H](n2c(C3CC(=O)N(CC4CC4)C3)nc3cnc4ccc(Cl)cc4c32)CCO1` (stereo partly drawn) [Compound 3, 4-{8-chloro-1-[(2R,4R)-2-methyloxan-4-yl]-1H-imidazo[4,5-c]quinolin-2-yl}-1-(cyclopropylmethyl)pyrrolidin-2-one], for which the half-inhibitory concentration (IC50) stood at 1.21 nM at LRRK2 wild type enzyme and 88.7 nM in experiment [1].
